The text below walks through data of patent publication US8283361B2 (AstraZeneca AB, priority 2008, dated 2012).

SMILES strings stand for the structures.

S. aureus GyrB ATPase, sequence (P0A0K8 whole entry): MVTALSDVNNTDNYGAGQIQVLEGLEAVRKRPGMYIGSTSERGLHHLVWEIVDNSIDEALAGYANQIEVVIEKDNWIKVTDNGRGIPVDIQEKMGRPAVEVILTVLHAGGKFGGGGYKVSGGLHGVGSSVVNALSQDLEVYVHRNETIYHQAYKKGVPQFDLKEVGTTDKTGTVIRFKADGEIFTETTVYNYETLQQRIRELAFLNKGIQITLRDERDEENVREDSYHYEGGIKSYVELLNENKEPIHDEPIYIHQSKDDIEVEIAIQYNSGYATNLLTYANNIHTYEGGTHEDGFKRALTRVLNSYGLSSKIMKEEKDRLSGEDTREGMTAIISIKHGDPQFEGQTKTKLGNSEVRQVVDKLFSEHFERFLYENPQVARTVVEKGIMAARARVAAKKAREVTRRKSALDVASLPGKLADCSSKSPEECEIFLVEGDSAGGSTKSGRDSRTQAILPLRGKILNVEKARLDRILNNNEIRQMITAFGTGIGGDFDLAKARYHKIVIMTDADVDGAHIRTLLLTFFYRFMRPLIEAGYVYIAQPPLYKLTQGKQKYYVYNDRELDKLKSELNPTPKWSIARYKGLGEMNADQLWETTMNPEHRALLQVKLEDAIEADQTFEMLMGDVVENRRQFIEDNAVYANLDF
S. aureus GyrB ATPase, sequence (P0AES4 whole entry, further chain): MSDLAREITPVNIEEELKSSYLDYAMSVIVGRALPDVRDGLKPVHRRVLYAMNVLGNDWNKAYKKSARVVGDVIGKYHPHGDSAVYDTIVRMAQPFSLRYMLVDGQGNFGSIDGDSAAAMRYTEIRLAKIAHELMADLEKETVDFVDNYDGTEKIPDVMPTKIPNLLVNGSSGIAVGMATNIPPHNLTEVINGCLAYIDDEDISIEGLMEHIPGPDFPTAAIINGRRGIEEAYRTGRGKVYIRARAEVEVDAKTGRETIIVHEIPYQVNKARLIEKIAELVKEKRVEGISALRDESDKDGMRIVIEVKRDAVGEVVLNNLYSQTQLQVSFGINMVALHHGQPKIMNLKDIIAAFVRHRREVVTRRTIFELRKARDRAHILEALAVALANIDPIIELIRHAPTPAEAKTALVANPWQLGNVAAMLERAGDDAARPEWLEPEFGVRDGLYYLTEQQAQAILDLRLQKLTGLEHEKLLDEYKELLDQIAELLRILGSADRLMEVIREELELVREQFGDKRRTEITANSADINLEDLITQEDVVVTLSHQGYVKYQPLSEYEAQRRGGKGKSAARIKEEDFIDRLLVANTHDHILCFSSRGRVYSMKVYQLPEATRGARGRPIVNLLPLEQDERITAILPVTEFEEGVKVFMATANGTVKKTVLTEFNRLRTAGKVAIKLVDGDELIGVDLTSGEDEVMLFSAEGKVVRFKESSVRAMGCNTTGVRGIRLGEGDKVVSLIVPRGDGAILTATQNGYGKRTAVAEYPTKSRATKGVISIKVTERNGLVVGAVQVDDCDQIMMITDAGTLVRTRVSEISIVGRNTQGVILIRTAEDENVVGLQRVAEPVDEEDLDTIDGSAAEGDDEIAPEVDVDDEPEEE

For this test, the target named is S. aureus GyrB ATPase (Staphylococcus aureus, UniProt P0A0K8). Put plainly: biochemical. To be noted: compound at 1 μM; one value per test if tested more than once; read-out: % Inhibition of S. aureus GyrB ATPase. Summed up:
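IC50 values derive from 10-point titrations of compound (in DMSO). Phosphate formed from 250 μM ATP was quantified by acidic molybdate/malachite green after quenching.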
As to `CCCn1cc(C(=O)NCCN2CCOCC2)c(=O)c2ccc(-c3cnc(NC(=O)NCC)cc3-c3nc(C(F)(F)F)cs3)cc21` [Example 351, 7-{6-[(ethylcarbamoyl)amino]-4-[4-(trifluoromethyl)-1,3-thiazol-2-yl]pyridin-3-yl}-N-[2-(morpholin-4-yl)ethyl]-4-oxo-1-propyl-1,4-dihydroquinoline-3-carboxamide], the inhibition at 1 µM came out at 95%. To `CCCn1cc(C(=O)NCCN2CCN(C)CC2)c(=O)c2ccc(-c3cnc(NC(=O)NCC)cc3-c3nc(C(F)(F)F)cs3)cc21` [Example 352, 7-{6-[(Ethylcarbamoyl)amino]-4-[4-(trifluoromethyl)-1,3-thiazol-2-yl]pyridin-3-yl}-N-[2-(4-methylpiperazin-1-yl)ethyl]-4-oxo-1-propyl-1,4-dihydroquinoline-3-carboxamide] belongs 88%.

In the case of `CCNC(=O)Nc1cc(-c2nc(C(F)(F)F)cs2)c(-c2ccc3c(=O)c(C(=O)NC)cn(Cc4ccccc4)c3c2)cn1` [Example 353, 1-Benzyl-7-{6-[(ethylcarbamoyl)amino]-4-[4-(trifluoromethyl)-1,3-thiazol-2-yl]pyridin-3-yl}-N-methyl-4-oxo-1,4-dihydroquinoline-3-carboxamide], the inhibition at 1 µM stood at 99%. With `CCNC(=O)Nc1cc(-c2nc(C(F)(F)F)cs2)c(-c2ccc3c(=O)c(C(=O)NCCO)cn(Cc4ccccc4)c3c2)cn1` [Example 354, 1-Benzyl-7-{6-[(ethylcarbamoyl)amino]-4-[4-(trifluoromethyl)-1,3-thiazol-2-yl]pyridin-3-yl}-N-(2-hydroxyethyl)-4-oxo-1,4-dihydroquinoline-3-carboxamide], the inhibition at 1 µM is 98%.

Consider `CCNC(=O)Nc1cc(-c2nc(C(F)(F)F)cs2)c(-c2ccc3c(=O)c(C(=O)NCCCO)cn(Cc4ccccc4)c3c2)cn1` [Example 355, 1-Benzyl-7-{6-[(ethylcarbamoyl)amino]-4-[4-(trifluoromethyl)-1,3-thiazol-2-yl]pyridin-3-yl}-N-(3-hydroxypropyl)-4-oxo-1,4-dihydroquinoline-3-carboxamide], for which the inhibition at 1 µM came out at 87%. Next, `CCNC(=O)Nc1cc(-c2nc(C(F)(F)F)cs2)c(-c2ccc3c(=O)c(C(=O)NCCN(C)C)cn(Cc4ccccc4)c3c2)cn1` [Example 356, 1-Benzyl-N-[2-(dimethylamino)ethyl]-7-{6-[(ethylcarbamoyl)amino]-4-[4-(trifluoromethyl)-1,3-thiazol-2-yl]pyridin-3-yl}-4-oxo-1,4-dihydroquinoline-3-carboxamide]: 85%; `CCNC(=O)Nc1cc(-c2nc(C(F)(F)F)cs2)c(-c2ccc3c(=O)c(C(=O)NCCN4CCOCC4)cn(Cc4ccccc4)c3c2)cn1` [Example 357, 1-Benzyl-7-{6-[(ethylcarbamoyl)amino]-4-[4-(trifluoromethyl)-1,3-thiazol-2-yl]pyridin-3-yl}-N-[2-(morpholin-4-yl)ethyl]-4-oxo-1,4-dihydroquinoline-3-carboxamide]: 87%.

On to `CCNC(=O)Nc1cc(-c2nc(C(F)(F)F)cs2)c(-c2ccc3c(=O)c(C(=O)NCCN4CCN(C)CC4)cn(Cc4ccccc4)c3c2)cn1` [Example 358, 1-Benzyl-7-{6-[(ethylcarbamoyl)amino]-4-[4-(trifluoromethyl)-1,3-thiazol-2-yl]pyridin-3-yl}-N-[2-(4-methylpiperazin-1-yl)ethyl]-4-oxo-1,4-dihydroquinoline-3-carboxamide], for which the inhibition at 1 µM was 95%. With `CCNC(=O)Nc1cc(-c2nc(C(F)(F)F)cs2)c(-c2ccc3c(=O)c(C(=O)NCCCO)cn(Cc4cccnc4)c3c2)cn1` [Example 359, 7-{6-[(ethylcarbamoyl)amino]-4-[4-(trifluoromethyl)-1,3-thiazol-2-yl]pyridin-3-yl}-N-(3-hydroxypropyl)-4-oxo-1-(pyridin-3-ylmethyl)-1,4-dihydroquinoline-3-carboxamide], the inhibition at 1 µM worked out at 92%. Take `CCNC(=O)Nc1cc(-c2nc(C(F)(F)F)cs2)c(-c2ccc3c(=O)c(C(=O)NCCN4CCOCC4)cn(Cc4cccnc4)c3c2)cn1` [Example 361, 7-{6-[(ethylcarbamoyl)amino]-4-[4-(trifluoromethyl)-1,3-thiazol-2-yl]pyridin-3-yl}-N-[2-(morpholin-4-yl)ethyl]-4-oxo-1-(pyridin-3-ylmethyl)-1,4-dihydroquinoline-3-carboxamide]: the inhibition at 1 µM is 97%. Consider `CCNC(=O)Nc1cc(-c2nc(C(F)(F)F)cs2)c(-c2ccc3c(=O)c(C(=O)NCCN4CCN(C)CC4)cn(Cc4cccnc4)c3c2)cn1` [Example 362, 7-{6-[(ethylcarbamoyl)amino]-4-[4-(trifluoromethyl)-1,3-thiazol-2-yl]pyridin-3-yl}-N-[2-(4-methylpiperazin-1-yl)ethyl]-4-oxo-1-(pyridin-3-ylmethyl)-1,4-dihydroquinoline-3-carboxamide], for which the inhibition at 1 µM amounted to 94%. Regarding `CCNC(=O)Nc1cc(-c2nc(C(F)(F)F)cs2)c(-c2ccc3c(=O)c(C(=O)NC)cn(CCO)c3c2)cn1` [Example 363, 7-{6-[(Ethylcarbamoyl)amino]-4-[4-(trifluoromethyl)-1,3-thiazol-2-yl]pyridin-3-yl}-1-(2-hydroxyethyl)-N-methyl-4-oxo-1,4-dihydroquinoline-3-carboxamide], the inhibition at 1 µM amounted to 95%. Next, `CCNC(=O)Nc1cc(-c2nc(C(F)(F)F)cs2)c(-c2ccc3c(=O)c(C(=O)NCCO)cn(CCO)c3c2)cn1` [Example 364, 7-{6-[(Ethylcarbamoyl)amino]-4-[4-(trifluoromethyl)-1,3-thiazol-2-yl]pyridin-3-yl}-N,1-bis(2-hydroxyethyl)-4-oxo-1,4-dihydroquinoline-3-carboxamide]: 97%; `CCNC(=O)Nc1cc(-c2nc(C(F)(F)F)cs2)c(-c2ccc3c(=O)c(C(=O)NCCCO)cn(CCO)c3c2)cn1` [Example 365, 7-{6-[(ethylcarbamoyl)amino]-4-[4-(trifluoromethyl)-1,3-thiazol-2-yl]pyridin-3-yl}-1-(2-hydroxyethyl)-N-(3-hydroxypropyl)-4-oxo-1,4-dihydroquinoline-3-carboxamide]: 99%. To `CCNC(=O)Nc1cc(-c2nc(C(F)(F)F)cs2)c(-c2ccc3c(=O)c(C(=O)NCCN(C)C)cn(CCO)c3c2)cn1` [Example 366, N-[2-(dimethylamino)ethyl]-7-{6-[(ethylcarbamoyl)amino]-4-[4-(trifluoromethyl)-1,3-thiazol-2-yl]pyridin-3-yl}-1-(2-hydroxyethyl)-4-oxo-1,4-dihydroquinoline-3-carboxamide] belongs 99%. Next, `CCNC(=O)Nc1cc(-c2nc(C(F)(F)F)cs2)c(-c2ccc3c(=O)c(C(=O)NCCN4CCOCC4)cn(CCO)c3c2)cn1` [Example 367, 7-{6-[(ethylcarbamoyl)amino]-4-[4-(trifluoromethyl)-1,3-thiazol-2-yl]pyridin-3-yl}-1-(2-hydroxyethyl)-N-[2-(morpholin-4-yl)ethyl]-4-oxo-1,4-dihydroquinoline-3-carboxamide]: 100%. With `CCNC(=O)Nc1cc(-c2nc(C(F)(F)F)cs2)c(-c2ccc3c(=O)c(C(=O)NCCN4CCN(C)CC4)cn(CCO)c3c2)cn1` [Example 368, 7-{6-[(Ethylcarbamoyl)amino]-4-[4-(trifluoromethyl)-1,3-thiazol-2-yl]pyridin-3-yl}-1-(2-hydroxyethyl)-N-[2-(4-methylpiperazin-1-yl)ethyl]-4-oxo-1,4-dihydroquinoline-3-carboxamide], the inhibition at 1 µM was 87%. To `CCNC(=O)Nc1cc(-c2nc(C(F)(F)F)cs2)c(-c2ccc3c(=O)c(C(=O)NC)cn(CCOC)c3c2)cn1` [Example 369, 7-{6-[(Ethylcarbamoyl)amino]-4-[4-(trifluoromethyl)-1,3-thiazol-2-yl]pyridin-3-yl}-1-(2-methoxyethyl)-N-methyl-4-oxo-1,4-dihydroquinoline-3-carboxamide] belongs 97%; to `CCNC(=O)Nc1cc(-c2nc(C(F)(F)F)cs2)c(-c2ccc3c(=O)c(C(=O)NCCO)cn(CCOC)c3c2)cn1` [Example 370, 7-{6-[(Ethylcarbamoyl)amino]-4-[4-(trifluoromethyl)-1,3-thiazol-2-yl]pyridin-3-yl}-N-(2-hydroxyethyl)-1-(2-methoxyethyl)-4-oxo-1,4-dihydroquinoline-3-carboxamide], 98%.

As to `CCNC(=O)Nc1cc(-c2nc(C(F)(F)F)cs2)c(-c2ccc3c(=O)c(C(=O)NCCCO)cn(CCOC)c3c2)cn1` [Example 371, 7-{6-[(Ethylcarbamoyl)amino]-4-[4-(trifluoromethyl)-1,3-thiazol-2-yl]pyridin-3-yl}-N-(3-hydroxypropyl)-1-(2-methoxyethyl)-4-oxo-1,4-dihydroquinoline-3-carboxamide], the inhibition at 1 µM is 98%.

As for `CCNC(=O)Nc1cc(-c2nc(C(F)(F)F)cs2)c(-c2ccc3c(=O)c(C(=O)NCCN(C)C)cn(CCOC)c3c2)cn1` [Example 372, N-[2-(dimethylamino)ethyl]-7-{6-[(ethylcarbamoyl)amino]-4-[4-(trifluoromethyl)-1,3-thiazol-2-yl]pyridin-3-yl}-1-(2-methoxyethyl)-4-oxo-1,4-dihydroquinoline-3-carboxamide], the inhibition at 1 µM is 98%. Next, `CCNC(=O)Nc1cc(-c2nc(C(F)(F)F)cs2)c(-c2ccc3c(=O)c(C(=O)NCCN4CCN(C)CC4)cn(CCOC)c3c2)cn1` [Example 373, 7-{6-[(Ethylcarbamoyl)amino]-4-[4-(trifluoromethyl)-1,3-thiazol-2-yl]pyridin-3-yl}-1-(2-methoxyethyl)-N-[2-(4-methylpiperazin-1-yl)ethyl]-4-oxo-1,4-dihydroquinoline-3-carboxamide]: 94%; `CCNC(=O)Nc1cc(-c2nc(C(F)(F)F)cs2)c(-c2ccc3c(=O)c(C(=O)NC)cn(CC4CC4)c3c2)cn1` [Example 374, 1-(Cyclopropylmethyl)-7-{6-[(ethylcarbamoyl)amino]-4-[4-(trifluoromethyl)-1,3-thiazol-2-yl]pyridin-3-yl}-N-methyl-4-oxo-1,4-dihydroquinoline-3-carboxamide]: 86%.
